Experimental findings from PubChem BioAssay AID651989 (The Scripps Research Institute Molecular Screening Center, 2013) are described below.

Structures are written as SMILES. Activity calls are given as the source filed them. No rule for the calls is given here. Some results are limits rather than exact numbers.

This assay addresses methionyl-tRNA synthetase (Trypanosoma brucei brucei) (UniProt Q38C91). Put plainly: T. brucei MetRS inhibitors, dose response, orthogonal assay for T. brucei MetRS inhibitor project, biochemical, fluorescence polarization (AID 651989). The following applies: Fluorescence polarization biochemical MetRS inhibition. For orientation: Fluorescence polarisation rises when a labelled molecule tumbles more slowly, as on binding a larger partner.

Chain of methionyl-tRNA synthetase (Trypanosoma brucei brucei) (Q38C91 1-773): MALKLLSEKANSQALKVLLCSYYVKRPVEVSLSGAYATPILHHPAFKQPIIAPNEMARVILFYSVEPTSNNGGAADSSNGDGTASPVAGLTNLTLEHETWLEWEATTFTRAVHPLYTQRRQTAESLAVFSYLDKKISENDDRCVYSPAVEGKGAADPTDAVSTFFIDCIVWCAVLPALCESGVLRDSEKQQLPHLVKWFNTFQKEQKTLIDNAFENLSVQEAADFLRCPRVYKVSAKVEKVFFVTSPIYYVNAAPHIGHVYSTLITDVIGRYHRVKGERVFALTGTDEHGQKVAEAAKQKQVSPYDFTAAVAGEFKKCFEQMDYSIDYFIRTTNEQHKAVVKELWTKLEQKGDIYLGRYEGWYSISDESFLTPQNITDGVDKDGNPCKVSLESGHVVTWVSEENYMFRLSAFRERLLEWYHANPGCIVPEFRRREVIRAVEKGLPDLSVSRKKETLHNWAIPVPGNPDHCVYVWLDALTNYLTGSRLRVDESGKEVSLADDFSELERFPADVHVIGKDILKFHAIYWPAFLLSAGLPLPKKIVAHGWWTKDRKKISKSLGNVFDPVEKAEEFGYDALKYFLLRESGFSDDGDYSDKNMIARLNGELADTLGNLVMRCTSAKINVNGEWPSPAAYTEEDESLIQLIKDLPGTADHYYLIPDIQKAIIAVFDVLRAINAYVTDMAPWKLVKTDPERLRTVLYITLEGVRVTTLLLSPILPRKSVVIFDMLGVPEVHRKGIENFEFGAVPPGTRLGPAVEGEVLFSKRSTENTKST

Consider `N#Cc1ccccc1CSc1nc2ncc(Br)cc2[nH]1`, for which the IC50 was > 119 µM (inactive).
For `O=C(Cc1ccc(Br)cc1)NNC(=O)Nc1ccc(Cl)cc1` the value was > 119 µM (inactive).
Regarding `O=C(OCC(=O)c1c[nH]c2ccccc12)c1ccc(OC(F)F)cc1`, the IC50 was > 119 µM (inactive).
For the compound `COc1ccc(NC(=O)COC(=O)CCCOc2ccc(Cl)cc2Cl)cc1`, the IC50 is > 119 µM (inactive).
For `COc1cc(OC)c(OC)cc1/C=N/Nc1nc2ccccc2[nH]1` the value was > 119 µM (inactive).
The same measure for `CO/N=C(\c1nonc1N)N1CCN(c2ccc(Cl)cc2[N+](=O)[O-])CC1`: > 119 µM (inactive); for `Cc1cc(Cl)ccc1OCCCC(=O)NNC(=O)c1ccccc1O`: > 119 µM (inactive); for `Cc1ccc(C(=O)Nn2c(O)c(C=C3N=c4ccccc4=N3)sc2=S)cc1`: > 119 µM (inactive).
The same measure for `COc1ccc(CC(=O)OCC(=O)Nc2ccc(Br)cc2)cc1`: > 119 µM (inactive).
For the compound `Clc1ccccc1-c1ccc2ncnc(NCc3ccc4c(c3)OCO4)c2c1`, the IC50 result was “inactive”.
For `O=C(NCc1cc(Br)cc(Br)c1OC(=O)c1ccccc1[N+](=O)[O-])c1ccccc1` the value was > 119 µM (inactive); for `Cc1cc2c(c(=O)n1CC1CCCO1)C(c1ccc3c(c1)OCO3)C(C#N)=C(N)O2` (stereo not drawn), > 119 µM (inactive); for `N#Cc1ccccc1CSc1ccc(-c2nc3ccccc3[nH]2)cn1`, > 119 µM (inactive).

A word on the IC50: it is the concentration needed to halve the response being measured.
